The values that follow come from article PMC11945486, “TAS1R2/TAS1R3 Single-Nucleotide Polymorphisms Affect Sweet Taste Receptor Activation by Sweeteners: The SWEET Project” (Nutrients, 2025).

One test addresses T1, mTAS1R2-WT/mTAS1R3-I60T (Mus musculus, UniProt Q925D8+Q925I4, I60T).
T1 construct: expressed in transfected cells; host or cells: HEK293T-Gα16gust44
T1 sequence (Q925I4 20-843): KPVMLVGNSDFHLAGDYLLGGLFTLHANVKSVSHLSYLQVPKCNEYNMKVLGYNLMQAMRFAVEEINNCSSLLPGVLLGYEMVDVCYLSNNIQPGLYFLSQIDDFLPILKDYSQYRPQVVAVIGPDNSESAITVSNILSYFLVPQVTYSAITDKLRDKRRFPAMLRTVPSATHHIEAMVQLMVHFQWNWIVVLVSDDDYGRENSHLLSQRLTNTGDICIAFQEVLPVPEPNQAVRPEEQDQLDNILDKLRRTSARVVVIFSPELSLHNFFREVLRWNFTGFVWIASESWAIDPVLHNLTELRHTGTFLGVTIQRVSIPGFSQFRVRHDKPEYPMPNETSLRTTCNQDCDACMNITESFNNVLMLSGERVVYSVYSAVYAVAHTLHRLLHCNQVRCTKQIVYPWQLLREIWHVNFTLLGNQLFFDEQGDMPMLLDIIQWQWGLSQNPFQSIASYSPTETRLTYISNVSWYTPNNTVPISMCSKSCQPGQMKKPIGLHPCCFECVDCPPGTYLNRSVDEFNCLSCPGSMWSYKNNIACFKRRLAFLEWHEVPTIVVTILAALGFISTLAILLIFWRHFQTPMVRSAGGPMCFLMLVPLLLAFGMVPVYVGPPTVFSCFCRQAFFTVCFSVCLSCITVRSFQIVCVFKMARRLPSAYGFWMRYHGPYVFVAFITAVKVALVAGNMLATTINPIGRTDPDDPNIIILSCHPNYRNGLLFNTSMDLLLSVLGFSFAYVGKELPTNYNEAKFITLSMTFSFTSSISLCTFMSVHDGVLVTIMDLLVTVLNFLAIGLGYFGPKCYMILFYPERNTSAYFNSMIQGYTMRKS
T1 sequence (Q925D8 21-858 I60T): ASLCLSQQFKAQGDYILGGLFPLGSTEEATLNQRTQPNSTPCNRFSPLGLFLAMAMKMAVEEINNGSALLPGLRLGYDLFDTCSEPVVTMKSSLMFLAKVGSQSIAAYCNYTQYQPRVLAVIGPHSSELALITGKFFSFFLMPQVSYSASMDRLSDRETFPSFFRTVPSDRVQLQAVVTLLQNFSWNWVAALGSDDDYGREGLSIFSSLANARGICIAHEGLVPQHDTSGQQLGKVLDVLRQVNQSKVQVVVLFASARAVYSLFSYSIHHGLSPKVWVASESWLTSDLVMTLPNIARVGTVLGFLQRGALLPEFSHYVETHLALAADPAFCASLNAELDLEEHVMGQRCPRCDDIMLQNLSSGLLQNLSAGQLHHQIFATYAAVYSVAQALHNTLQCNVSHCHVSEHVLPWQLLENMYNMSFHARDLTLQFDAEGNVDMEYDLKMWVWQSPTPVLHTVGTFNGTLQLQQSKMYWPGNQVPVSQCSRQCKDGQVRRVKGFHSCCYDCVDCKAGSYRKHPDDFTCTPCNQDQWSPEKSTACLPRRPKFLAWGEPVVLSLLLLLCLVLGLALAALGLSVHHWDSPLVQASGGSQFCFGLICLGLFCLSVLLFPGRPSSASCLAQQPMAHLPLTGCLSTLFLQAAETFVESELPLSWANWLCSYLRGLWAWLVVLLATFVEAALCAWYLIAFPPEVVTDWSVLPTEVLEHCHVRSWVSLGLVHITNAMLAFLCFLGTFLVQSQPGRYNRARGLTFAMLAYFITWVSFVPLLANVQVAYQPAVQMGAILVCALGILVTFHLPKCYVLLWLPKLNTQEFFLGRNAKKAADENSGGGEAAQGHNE
In words: Calcium mobilisation assay, HEK293T-Gα16gust44 cells, mouse TAS1R3-I60T variant. Format: cell-based. As to conditions: mTAS1R2-WT + mTAS1R3-I60T; "-": no activation. The protocol:
(§1) The HEK293T cells were kindly provided by Jay P. Slack (Givaudan Flavors Corporation; Cincinnati, OH, USA). HEK293T cells stably transfected with Gα16gust44 [43, 67] were seeded in poly-D-lysine-coated clear-bottom black 96-well plates (0.35 × 10^5 cells/well) in high-glucose DMEM supplemented with 2 mM GlutaMAX, 10% dialysed foetal bovine serum with penicillin/streptomycin and G418 (400 μg/mL) at 37 °C and 6.3% CO2 in a humidified atmosphere as previously reported. […] As a negative control, HEK293T cells were mock-transfected with the empty expression vector. After a further 24 h of incubation, the HEK293T cells were washed with C1 buffer (130 mM NaCl, 5 mM KCl, 10 mM HEPES pH 7.4 and 2 mM CaCl2). The 96-well plates containing the cells were then stimulated with sweet-tasting compounds. […] Different concentration ranges were tested depending on the sweet compound injected. The Ca^2+ changes were expressed as fractional changes in fluorescent light intensity: ΔF/F = (F − F0)/F0, where F was the fluorescent light intensity at each point, and F0 was the value of emitted fluorescent light prior to stimulus application. To calculate dose–response relationships, the changes in fluorescence upon stimulus application were averaged, mock-subtracted and baseline-corrected. The dose–response data obtained were adjusted using a 4-parameter logistic equation. The half-maximal effective concentrations (EC50 values) and maximal signal amplitudes were calculated using SigmaPlot software (version 15.0) (Systat Software; San Jose, CA, USA).
(§2) HEK293T-Gα16gust44 cells were transiently cotransfected with pcDNA6-MAX-mTAS1R2-FLAG, pcDNA4-MAX-mTAS1R3-WT-FLAG or pcDNA4-MAX-mTAS1R3-I60T-FLAG, and pCMV-GCaMP5G as previously described in detail. After 24 h, the cells were washed with C1 buffer and stimulated with a logarithmically increasing range of sweetener concentrations. Calcium responses during automated application were monitored using a FlexStation®3 Multi-Mode microplate reader. The dose–response curves, EC50 values and maximal signal amplitudes were calculated as previously described.
(§3) For in vitro calcium mobilisation assay performed on hTAS1R2-SNPs, hTAS1R3-SNPs and mTAS1R3-I60T, 6 to 7 concentrations were tested for each sweet compound, plus buffer alone. All concentration–receptor combinations were measured in duplicate, and each experiment was repeated at least 4 times (8 wells/concentration). Results were expressed for each concentration as ΔF/F mean ± SEM and represented as dose–response curves.
In general terms: Calcium flux is commonly read through the fluorescence of an indicator in the cells.

The next test has as its target T2, mTAS1R2-WT/mTAS1R3-WT (Mus musculus, UniProt Q925D8+Q925I4).
T2 construct: expressed in transfected cells; host or cells: HEK293T-Gα16gust44
T2 sequence (Q925I4 20-843): T1 sequence (Q925I4 20-843)
T2 sequence (Q925D8 21-858): T1 sequence (Q925D8 21-858 I60T) with T40I
In words: Calcium mobilisation assay, HEK293T-Gα16gust44 cells, mouse sweet taste receptor WT. As to conditions: mTAS1R2-WT + mTAS1R3-WT; "-": no activation. Format: cell-based. The protocol: as §1, §2, §3

Changes are numbered by the printed parent chain.

What is called EC50 is the concentration at which the effect is half-maximal.

For `O=C1NS(=O)(=O)c2ccccc21` [Saccharin, saccharin], the EC50 turned out to be 2.54 ± 0.061 mM at mTAS1R2-WT/mTAS1R3-I60T and 1.52 ± 0.017 mM on mTAS1R2-WT/mTAS1R3-WT.
